Reference: patent publication US9757477B2, “Imaging brown adipose tissue with curcumin derivatives” (The General Hospital Corporation, priority 2013, dated 2017)
Where “and” joins values, the source holds several entries; their conditions need not be identical. Equal entries are not always repeated.

Experiments:
interscapular BAT [1] = assay: Top-down whole-organism NIR fluorescence screening of dyes (ROI1/ROI2 contrast); assay type: in vivo, nude mice; details: for visible contrast around the interscapular BAT area: in vivo NIR images; for Ratio AVERAGE (mean ratio ROI1/ROI2): i.v., mean of three filter pairs, hit threshold >1.10
Method: 38 fluorescent dyes from commercial resources and from the inventors' laboratory were screened. Dyes with excitation range of 550-745 nm, emission range of 600-840 nm, and with molecular weight of less than 700 Da (except Cy5.5) (representative dyes are listed in FIG. 1d and the full list is shown in Table 2). Their hydrophobicities were not determined. The library was screened by intravenous tail injection of compounds into nude mice (10μg/mouse). Each dye was imaged with three optimized excitation/emission filter-pairs, and images at one hour after i.v. injection were acquired.
Top-down whole organism screening was performed as follows. Nude mice (nu/nu COX7) were purchased from Massachusetts General Hospital and Balb/c mice were from Jackson Laboratory. All animal experimental procedures were approved by the Institutional Animal Care and Use Committee (IACUC) at Massachusetts General Hospital. Dye stock solutions were prepared in DMSO. The final injection solution (0.1 mg/ml) was freshly prepared in a mixed solution of 20% DMSO, 20% Cremophor EL and 60% saline. Nude mice (n=5) were injected with a 100 μL dye solution via tail vein. For each imaging session, mice were anesthetized with a mixture of oxygen and isoflurane for 5 minutes, and then positioned into the imaging chamber of IVIS® Spectrum in vivo pre-clinical imaging system. Images were acquired at one-hour post-injection using sequence imaging with three excitation/emission filter pairs for each dye.
Hits selection was performed as follows. Hits from cell- or protein-based screening are usually selected by setting certain threshold. In the case of the top-down imaging screening, two methods were used (threshold and visible contrast) to select hits. First, three images obtained with three excitation/emission pairs were selected for each dye. These ex/em pairs were selected from the closest excitation and emission wavelengths of the tested dyes. For instance, 605/660 nm, 605/680 nm, 640/680 nm were selected for image acquisition of Nile blue (625/660 nm). The quantification of contrast for each image was calculated as a ratio of two ROIs (region of interest). ROI1 reflected the average signal from interscapular BAT and ROI2 was the average signal of the area that included BAT and white adipose tissue (WAT) around the interscapular site (FIG. 1b, left). The averaged fluorescent signal of ROI was used instead of the total signal, because the total signal depends on the area of ROI, whereas the averaged signal reflects the density of signal. The ratio of ROI1/ROI2 could reflect the signal/noise ratio of the tested probe, and could also reflect the selectivity of the probe for BAT over WAT. For each dye, three ROI1/ROI2 ratios obtained with the three filter pairs were calculated. The mean of the ratios was used as the threshold. If the mean ratio was >1.10, the dye was selected as a potential positive hit (FIG. 1c). Since the contrast of a dye in the top-down screening is in the visible range, the visible contrast around the interscapular BAT area was also tested for the hits with the mean ratio of >1.10. If both mean ratio and the visible contrast were positive, then the hit was subjected to re-testing procedure to validate its reliability as described below.
Although CRANAD-2 and CRANAD-3 were able to provide certain contrast for BAT in vivo, their excitation and emission wavelengths were still shorter than required for an ideal NIR imaging probe (both excitation and emission >640 nm). […] To seek better probes, a sub-library was synthesized based on the structures of the lead probes CRANAD-2 and -3. CRANAD-6, -19, -22, -24, -26, -32 and -43 were synthesized and tested (images and chemical structures, excitation and emission spectra are shown in FIG. 9 a-e). […] However, the ROI1/ROI2 ratio of CRANAD-22 was not improved (FIG. 9c).

[2] = test system: BAT cells induced from wild-type brown preadipocytes; assay: In vitro staining of BMPs-induced BAT cells (live cell confocal); assay type: cell-based; details: live cell confocal images
interscapular BAT [3] = assay: Monitoring interscapular BAT mass change in STZ-induced diabetic mice; assay type: in vivo, Balb/c mice
Method: Monitoring was performed as follows. Two-month old Balb/c mice (n=5) were injected with STZ (80 mg/kg) for 7 days. When blood glucose levels reached 250 mg/dL on two consecutive days, mice were subjected to NIR imaging with CRANAD-29. Before imaging, the fur around the interscapular area was removed. Images were acquired at pre-injection, as well as 2- and 4-hours after i.v. injection. After imaging, mice were sacrificed, BAT from both groups was dissected, and weighted, and the linear correlation was established between in vivo fluorescence signal and weight of the dissected BATs. The same imaging procedure was conducted with the control group injected with the same volume of saline for 7 days (n=5).

interscapular BAT [4] = assay: Monitoring BAT activation under cold exposure; assay type: in vivo, balb/c mice; details: 4° C. cold exposure
Method: BAT could be activated under various conditions including cold exposure. In this report, whether CRANAD-29 could be used to monitor BAT activation under these conditions was investigated as follows. Two-month old balb/c mice (n=5) were placed in a 4° C. cold room for 2 hours before i.v. injection of CRANAD-29. Images were acquired at 1-, 2-, 4-hours after probe injection, and mice were placed in the cold room between imaging sessions. Control mice (n=5) were placed in a 25° C. room. Images were captured at the same time points after CRANAD-29 injection.

inguinal sWAT = assay: Monitoring browning of subcutaneous WAT after CL 316,243 treatment; assay type: in vivo, C57BL6 mice; details: after 12 days CL 316,243 1.0 mg/kg i.p.
Method: Two-month old C57BL6 mice (n=5) were i.p. injected CL 316,243 (100 uL, 1.0 mg/kg) for 12 days, and the control mice (n=5) were i.p. injected with saline. On the 13th day, both groups were imaged after i.v. injection of CRANAD-29. Images were acquired at 1-, 2-, 4-hours after the probe injection. After the last imaging session, inguinal sWAT were dissected after scarification of the mice, and the dissected sWAT tissue was subjected to qPCR for UCP-1 expression and H&E staining

[5] = nude mice, one hour post-injection

CN(C)c1ccc(/C=C/C2=CC(=C/C=C3C=CC(=[N+](C)C)C=C3)/O[B-](F)(F)O2)cc1 [CRANAD-2]
visible contrast around the interscapular BAT area (interscapular BAT [1]): best contrast and clear triangular contour | Ratio No 1 (ROI1/ROI2 average fluorescence intensity) (interscapular BAT [1]; nude mice, 10 μg/mouse i.v., one hour post-injection, first excitation/emission filter pair): 1.31E+00 | Ratio No 2 (ROI1/ROI2 average fluorescence intensity) (interscapular BAT [1]; nude mice, 10 μg/mouse i.v., one hour post-injection, second excitation/emission filter pair): 1.26E+00 | Ratio No 3 (ROI1/ROI2 average fluorescence intensity) (interscapular BAT [1]; nude mice, 10 μg/mouse i.v., one hour post-injection, third excitation/emission filter pair): 1.26E+00 | Ratio AVERAGE (mean ratio ROI1/ROI2) (interscapular BAT [1]; [5]): 1.28 and 1.28E+00 | staining of oil droplets in BAT cells [2]: able to clearly label oil droplets in BAT cells

F[B-]1(F)OC(/C=C/c2cc3c4c(c2)CCCN4CCC3)=CC(/C=C/c2cc3c4c(c2)CCCN4CCC3)=[O+]1 [CRANAD-29]
visible contrast around the interscapular BAT area (interscapular BAT [1]): excellent contrast and a very clear contour of BAT | Ratio AVERAGE (mean ratio ROI1/ROI2) (interscapular BAT [1]; [5]): 1.36 | fluorescence signal from diabetic mice vs control group (interscapular BAT [3]; STZ 80 mg/kg for 7 days, CRANAD-29 i.v.): significantly lower | correlation between BAT mass and fluorescence signal (interscapular BAT [3]; STZ-treated and normal animals): excellent direct correlation | signal of cold-exposed animals vs control group (interscapular BAT [4]; 1 hour after probe injection): 1.65 fold | signal of cold-exposed animals vs control group (interscapular BAT [4]; 2 hours after probe injection): 1.59 fold | signal of cold-exposed animals vs control group (interscapular BAT [4]; 4 hours after probe injection): 1.53 fold | CRANAD-29 signal around inguinal subcutaneous WAT, treated vs control group (inguinal sWAT): significantly higher | fluorescent signal from interscapular BAT area, treated vs control group (inguinal sWAT): higher fluorescent signal
